These results are taken from patent publication US20130005678A1, “Methods and Compositions for Treating or Ameliorating Cancer Using Gemcitabine-5'-Elaidate” (CLAVIS PHARMA ASA, priority 2010, published 2013).

The test system of one data set is CEM cells. As to the kind of experiment: Intracellular dFdCTP level in CEM cells with or without dipyridamole (HPLC). Conditions: 10 μM. The format is cell-based, human. The method, then: hENT1 can inhibited in vitro by various agents including dipyridamole, NBMPR, and NBI. In order to test whether gemcitabine-5′-elaidate entry into the cells is independent of a nucleoside transporter such as hENT1, dipyridamole is used to block hENT1. The intracellular level of dFdCTP is determined in CEM cells after 60 minutes exposure to either dFdC or gemcitabine-5′-elaidate, with or without the addition of dipyridamole (DP). The compounds are administered at 10 μM, and the triphosphates are determined using HPLC. Deamination is blocked using tetrahydrouridine.

Data set [1] has as its system human colon cancer Co6044. In words: Antitumor activity in human colon xenograft Co6044 (intraperitoneal). The format is in vivo. Conditions: NCR female mice; intraperitoneally every third day five times; gemcitabine 120 mg/kg, gemcitabine-5′-elaidic acid ester 40 mg/kg. How it is done:
(§1) Fragments of human colon cancers Co5776 and Co6044 are implanted subcutaneously in NCR female mice (7-8 mice/group). Gemcitabine (120 mg/kg) and gemcitabine-5′-elaidic acid ester (40 mg/kg) are administered intraperitoneally, every third day for five times.

The subject of data set [2] is Co-26 murine colon cancer cells. As to the kind of experiment: Antitumor effect in Co-26 liver metastasis model. The format is in vivo. Conditions: single dose. The method, then: Antitumor effect of single dose of gemcitabine-5′-elaidic acid ester or gemcitabine is tested in Balb/C female mice injected with Co-26 murine colon cancer cells in the spleen (a liver metastasis model). […] The activity of gemcitabine is similar.

Data set [3] concerns CCRF-CEM human leukemia cell line. In words: Triphosphate accumulation and retention in CCRF-CEM cells. The format is cell-based. The text has this:
Drugs: Gemcitabine-5′-elaidate was provided by Clavis Pharma (Oslo, Norway), tetra hydro uridine (THU) was from Calbiochem (Merck, Darmstadt, Germany), dipyridamole and ara-C were from Sigma-Aldrich (St. Louis, Mo., USA) and dFdC was from Eli-Lilly (Indianapolis, Ind., USA). The radioactively labeled drugs were obtained from Moravek (Brea, Calif., USA); the drugs were labeled with tritium on the 5-C site of the base. A mix of radioactive and non-radioactive compounds was made for exposure of cells; dFdC and CP-4126 were used at a final concentration of 8.9 μM and a specific activity of 586 and 391 mCi/mmol, respectively.
Cell lines: For the experiments the CCRF-CEM human leukemia cell line and its dCK negative variant (CEM/dCK−) were used. The cell lines were cultured in RPMI medium (BioWhittaker, Verviers, Belgium) supplemented with 10% fetal calf serum (PAA laboratories, Pasching, Austria) and HEPES buffer (BioWhittaker). Of the nucleoside influx transporters, the CEM cell line only expresses the equilibrative nucleoside transporter (hENT) and not the concentrative nucleoside transporter (hCNT). Belt et al. Adv. Enzyme Regul., 1993, 33, 235-52. Dipyridamole (DP) was used to inhibit the influx of the drugs by hENT. In order to get a clean picture, THU was also added to inhibit deamination of ara-C and dFdC.
Triphosphate accumulation: Cells were treated with 1 and 10 μM of dFdC, while for the lipophilic analogs 10 and 100 μM was used. The cells were incubated for 60 minutes and retention of the triphosphates was investigated after 60 and 120 minutes incubation in drug-free medium. Dipyridamole was added to inhibit drug influx by the hENT transporter. After incubation the cell pellet was resuspended in ice-cold PBS and incubated for 20 minutes at 4° C. with 40% trichloroacetic acid. After centrifugation (10,000 g, 10 min, 4° C.) the supernatant was treated with a 2-fold excess of trioctylamine/1,1,2-trichlorotrifluorethane (1:4) and spun down (10,000 g, 1 min) and the aqueous phase was stored at −20° C. until analysis by HPLC on a Whatman Partisphere SAX column (GE healthcare, Chalfont St. Giles, UK) using gradient (dFdC-TP) elution as described earlier. Noordhuis et al., Leuk. Res., 1996, 20, 127-34; Ruiz van Haperen, et al., Biochem. Pharmacol., 1994, 48, 1327-39.

In another data set the test system is xenograft mouse models. As to the kind of experiment: Correlation of hENT1 mRNA levels and sensitivity to gemcitabine in xenograft mouse models (FIG. 6). The format is in vivo. Conditions: higher expression level of hENT1 mRNA. The text has this: FIG. 6 depicts the correlation of hENT1 mRNA levels and sensitivity to gemcitabine in xenograft mouse models. There are many nucleoside transporters and each may move nucleoside analog drugs across the membrane with unique kinetics. A cancer cell which has lower levels nucleoside transporters will be less efficient at transporting these drugs into the cells, reducing the efficacy of the drug. For example a tumor that has low levels of hENT1 is less sensitive to treatment with gemcitabine. FIG. 6 depicts the correlation of hENT1 mRNA levels and sensitivity to gemcitabine in xenograft mouse models. In some aspects low expression of hENT1 on pancreatic tumor cells linked to poor survival after gemcitabine therapy. In addition, hENT1 deficient tumor cells are resistant to pyrimidine nucleoside analogs in vitro. For example, hENT1 mRNA levels are co-related to the sensitivity to gemcitabine in xenograft mouse models.

The test system of data set [4] is human colon cancer Co5776. As to the kind of experiment: Antitumor activity in human colon xenograft Co5776. The class given is in vivo. The conditions noted are these: NCR female mice; intraperitoneally every third day five times; gemcitabine 120 mg/kg, gemcitabine-5′-elaidic acid ester 40 mg/kg. The method, then:
as §1
NCr female mice implanted subcutaneously with human colon carcinoma fragments, Co5776, are treated intraperitoneally. Two different schedules of gemcitabine-5′-elaidic acid ester are administered, once weekly times 2 (Days 11 and 18), and every third day times 5 (Days 11, 14, 17, 20, and 23). Antitumor activity of gemcitabine-5′-elaidic acid ester is similar for 150 mg/kg once weekly, administered twice or 40 mg/kg every third day administered five times.

In a further data set the test system is pancreatic cancer. As to the kind of experiment: Survival of pancreatic cancer patients receiving gemcitabine monotherapy (FIG. 8). Conditions: hypothetical plot. The class given is in vivo, human. The method, then: Patients suffering from pancreatic cancer are administered gemcitabine monotherapy. Post mortem studies of the patients' tumors determine the levels of hENT1 expression in the tumors. FIG. 8 depicts a Kaplan-Meier plot of survival for patients receiving the gemcitabine monotherapy Patients with high hENT1 expression (dotted line) outperform those with areas of hENT1-low tumor.

In the next data set the test system is Murine Lewis Lung cells. Conditions: BDF1 mice; intravenously on Day 1.

Procedure for Murine Lewis Lung cells: Murine Lewis Lung cells are intravenously injected to BDF1 mice. Mean survival as well as body weight change and tumor free survivors on Day 72 are endpoints of the study. […] Treatment is administered once daily intraperitoneally on Days 1-4 and 7-11.

Take `Nc1ccn([C@@H]2O[C@H](CO)[C@@H](O)C2(F)F)c(=O)n1` [gemcitabine, 2′2′-difluorodeoxycytidine]: the “intracellular triphosphate (dFdCTP) level with DP” value with CEM cells (60 minutes exposure, with dipyridamole, tetrahydrouridine present) is “below level of detection”. For the same compound, the “level of triphosphate over time in the absence of DP” value with CEM cells (after exposure, without dipyridamole) is “decreases with time”. Further, the antitumor effect result in data set [1] and in data set [4] was “Significant antitumor effect” in each case. Also, in data set [2], the “activity compared with gemcitabine” value is on record as “similar”. Also, the “retention of dFdC-TP concentration after washing away the drugs” value in data set [3] (60 and 120 minutes in drug-free medium) is “decreased after washing away the drugs”. Moreover, in data set [3] (dFdC 1 and 10 μM, lipophilic analog 10 and 100 μM), the “triphosphates formed after 60 minutes incubation” value is listed as “more triphosphates were formed”. Also, in data set [3] (hENT inhibited by dipyridamole), the “effect of dipyridamole on dFdC-TP accumulation” value is recorded as “abolishing accumulation of dFdC-TP”. Besides, the “response in relation to hENT1 mRNA expression level” value in the data set on xenograft mouse models is given as “better response”. For the same compound, in the data set on pancreatic cancer, the “survival (Kaplan-Meier), high hENT1 vs hENT1-low tumor” value is on record as “outperform”.
For `O=P1(N(CCCl)CCCl)NCCCO1` (stereo not drawn) [CTX, Cyclophosphamide], in the data set with Murine Lewis Lung cells, the antitumor activity result was “highly active” and the toxicity entry is “non-toxic”.
